In ChEMBL document CHEMBL1201862, “PubChem BioAssay data set” (2004):
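Five compound concentrations were applied to cells in 96-well plates for 48 hours; endpoints were derived by simple linear interpolation of the resulting dose-response curve. At the GI50, growth is halved.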 Calls of active or inactive are those of the source. Rule as the data show it: active = GI50 up to about 1.1 µM and inactive = higher.

Legend:
Assay in all cases: DTP human tumour cell line panel, 48 h
COLO 205 = system: COLO 205
XF498 = system: XF498
HT-29 = system: HT-29
UO-31 = system: UO-31
SR = system: SR
RPMI-8226 = system: RPMI-8226
OVCAR-8 = system: OVCAR-8
DLD-1 = system: DLD-1
TK-10 = system: TK-10
ACHN = system: ACHN
SF-539 = system: SF-539
SK-MEL-5 = system: SK-MEL-5
SF-268 = system: SF-268
NCI-H23 = system: NCI-H23
SW-620 = system: SW-620
NCI-H522 = system: NCI-H522
UACC-62 = system: UACC-62
Malme-3M = system: Malme-3M
SK-OV-3 = system: SK-OV-3
SK-MEL-28 = system: SK-MEL-28
NCI-H226 = system: NCI-H226
DMS-273 = system: DMS-273
HCT-116 = system: HCT-116
IGROV-1 = system: IGROV-1
SF-295 = system: SF-295
RXF 393 = system: RXF 393
HL-60 = system: HL-60
NCI-H460 = system: NCI-H460
M14 = system: M14
SK-MEL-2 = system: SK-MEL-2
OVCAR-3 = system: OVCAR-3
HCT-15 = system: HCT-15
OVCAR-4 = system: OVCAR-4
MOLT-4 = system: MOLT-4
SN12C = system: SN12C
HOP-92 = system: HOP-92
U-251 = system: U-251
SNB-75 = system: SNB-75
SNB-19 = system: SNB-19
DMS-114 = system: DMS-114
KM-20L2 = system: KM-20L2
EKVX = system: EKVX
CAKI-1 = system: CAKI-1
KM12 = system: KM12
LXFL 529 = system: LXFL 529
786-0 = system: 786-0
HOP-18 = system: HOP-18
UACC-257 = system: UACC-257
HOP-62 = system: HOP-62
A549 = system: A549
M19-MEL = system: M19-MEL
CCRF-CEM = system: CCRF-CEM
K562 = system: K562
OVCAR-5 = system: OVCAR-5
HCC 2998 = system: HCC 2998
A498 = system: A498
Hs-578T = system: Hs-578T
MDA-MB-231 = system: MDA-MB-231
DU-145 = system: DU-145
LOX IMVI = system: LOX IMVI
MDA-MB-435 = system: MDA-MB-435
NCI/ADR-RES = system: NCI/ADR-RES
MDA-N = system: MDA-N
PC-3 = system: PC-3
SNB-78 = system: SNB-78
T47D = system: T47D

COC1=CC(=O)c2ccc(C(C)C)cc2C1(C)C1=NC(C)(C)CO1 (stereo not drawn)
GI50 (COLO 205): > 100 µM (inactive) | GI50 (XF498): > 100 µM (inactive) | GI50 (HT-29): > 100 µM (inactive) | GI50 (UO-31): > 100 µM (inactive) | GI50 (SR): 86.3 µM (inactive) | GI50 (RPMI-8226): 41.4 µM (inactive) | GI50 (OVCAR-8): > 100 µM (inactive) | GI50 (DLD-1): > 100 µM (inactive) | GI50 (TK-10): > 100 µM (inactive) | GI50 (ACHN): > 100 µM (inactive) | GI50 (SF-539): > 100 µM (inactive) | GI50 (SK-MEL-5): > 100 µM (inactive) | GI50 (SF-268): > 100 µM (inactive) | GI50 (NCI-H23): > 100 µM (inactive) | GI50 (SW-620): > 100 µM (inactive) | GI50 (NCI-H522): 77.4 µM (inactive) | GI50 (UACC-62): > 100 µM (inactive) | GI50 (Malme-3M): > 100 µM (inactive) | GI50 (SK-OV-3): > 100 µM (inactive) | GI50 (SK-MEL-28): > 100 µM (inactive) | GI50 (NCI-H226): > 100 µM (inactive) | GI50 (DMS-273): > 100 µM (inactive) | GI50 (HCT-116): > 100 µM (inactive) | GI50 (IGROV-1): > 100 µM (inactive) | GI50 (SF-295): > 100 µM (inactive) | GI50 (RXF 393): > 100 µM (inactive) | GI50 (HL-60): 63 µM (inactive) | GI50 (NCI-H460): > 100 µM (inactive) | GI50 (M14): > 100 µM (inactive) | GI50 (SK-MEL-2): > 100 µM (inactive) | GI50 (OVCAR-3): > 100 µM (inactive) | GI50 (HCT-15): > 100 µM | GI50 (OVCAR-4): > 100 µM (inactive) | GI50 (MOLT-4): 81.7 µM (inactive) | GI50 (SN12C): > 100 µM (inactive) | GI50 (HOP-92): 86.7 µM (inactive) | GI50 (U-251): > 100 µM (inactive) | GI50 (SNB-75): 80.5 µM (inactive) | GI50 (SNB-19): > 100 µM (inactive) | GI50 (DMS-114): > 100 µM (inactive) | GI50 (KM-20L2): > 100 µM (inactive) | GI50 (EKVX): > 100 µM (inactive) | GI50 (CAKI-1): > 100 µM (inactive) | GI50 (KM12): > 100 µM (inactive) | GI50 (LXFL 529): > 100 µM (inactive) | GI50 (786-0): > 100 µM (inactive) | GI50 (HOP-18): > 100 µM (inactive) | GI50 (UACC-257): 65.8 µM (inactive) | GI50 (HOP-62): > 100 µM (inactive) | GI50 (A549): > 100 µM (inactive) | GI50 (M19-MEL): > 100 µM (inactive) | GI50 (CCRF-CEM): > 100 µM (inactive) | GI50 (K562): 76 µM (inactive)

CC1=CC2=C(OCO1)C(=O)c1ccccc1C2=O
GI50 (COLO 205): 5.86 µM (inactive) | GI50 (OVCAR-5): 6.21 µM (inactive) | GI50 (HT-29): 7.4 µM (inactive) | GI50 (UO-31): 7.94 µM (inactive) | GI50 (SR): 7.82 µM (inactive) | GI50 (RPMI-8226): 4.52 µM (inactive) | GI50 (OVCAR-8): 8.87 µM (inactive) | GI50 (DLD-1): 21.5 µM (inactive) | GI50 (TK-10): 28.1 µM (inactive) | GI50 (ACHN): 3.76 µM (inactive) | GI50 (SF-539): 6.14 µM (inactive) | GI50 (HCC 2998): 30.5 µM (inactive) | GI50 (SK-MEL-5): 1.5 µM (inactive) | GI50 (SF-268): 7.5 µM (inactive) | GI50 (NCI-H23): 3.27 µM (inactive) | GI50 (SW-620): 8.09 µM (inactive) | GI50 (NCI-H522): 2.57 µM (inactive) | GI50 (UACC-62): 5.11 µM (inactive) | GI50 (A498): 14.5 µM (inactive) | GI50 (Malme-3M): 2.51 µM (inactive) | GI50 (SK-OV-3): 13.3 µM (inactive) | GI50 (SK-MEL-28): 4.86 µM (inactive) | GI50 (NCI-H226): 10.4 µM (inactive) | GI50 (DMS-273): 10.5 µM (inactive) | GI50 (Hs-578T): 1.67 µM (inactive) | GI50 (HCT-116): 7.16 µM (inactive) | GI50 (IGROV-1): 11 µM (inactive) | GI50 (MDA-MB-231): 4.13 µM (inactive) | GI50 (SF-295): 4.17 µM (inactive) | GI50 (RXF 393): 4.61 µM (inactive) | GI50 (HL-60): 3.95 µM (inactive) | GI50 (DU-145): 2.16 µM (inactive) | GI50 (NCI-H460): 7.11 µM (inactive) | GI50 (M14): 4.73 µM (inactive) | GI50 (SK-MEL-2): 0.652 µM (active) | GI50 (OVCAR-3): 5.4 µM (inactive) | GI50 (HCT-15): 14.8 µM | GI50 (LOX IMVI): 1.02 µM (active) | GI50 (MDA-MB-435): 1.46 µM (inactive) | GI50 (OVCAR-4): 3.73 µM (inactive) | GI50 (MOLT-4): 6.84 µM (inactive) | GI50 (NCI/ADR-RES): 3.31 µM (inactive) | GI50 (SN12C): 5.68 µM (inactive) | GI50 (HOP-92): 10.4 µM (inactive) | GI50 (U-251): 1.36 µM (inactive) | GI50 (SNB-75): 3.66 µM (inactive) | GI50 (MDA-N): 0.408 µM (active) | GI50 (SNB-19): 9.59 µM (inactive) | GI50 (DMS-114): 3.35 µM (inactive) | GI50 (KM-20L2): 22.9 µM (inactive) | GI50 (PC-3): 3.18 µM (inactive) | GI50 (EKVX): 46.7 µM (inactive) | GI50 (CAKI-1): 8.39 µM (inactive) | GI50 (KM12): 6.71 µM (inactive) | GI50 (LXFL 529): 21.7 µM (inactive) | GI50 (786-0): 12.8 µM (inactive) | GI50 (HOP-18): 12.4 µM (inactive) | GI50 (UACC-257): 2.79 µM (inactive) | GI50 (HOP-62): 6.87 µM (inactive) | GI50 (A549): 6.08 µM (inactive) | GI50 (M19-MEL): 1.79 µM (inactive) | GI50 (SNB-78): 33.1 µM (inactive) | GI50 (CCRF-CEM): 10.1 µM (inactive) | GI50 (T47D): 2.43 µM (inactive) | GI50 (K562): 6.87 µM (inactive)
